Results taken from US11896704B2, “Compounds useful for the treatment and/or care of the skin, hair, nails and/or mucous membranes” (LUBRIZOL ADVANCED MATERIALS, INC., priority 2017, dated 2024).

Assays:
[1] = tested on: mitochondrial complex I (NADH dehydrogenase); assay: Mitochondrial complex I activity in human dermal fibroblasts, colorimetric assay; format: cell-based; details: HDFa, 48 hours
Procedure: Inhibition of Mitochondrial Complex I Activity Using an Assay Based on Colorimetric Detection. Human Dermal Fibroblasts from adult (HDFa, Life Technologies) are seeded at a density of 750.000 cells/75 cm^2 flask (one flask per condition) in culture medium M106 with Low Serum Growth Supplement (Life Technologies). Cells are grown during 8 days at 37° C. in 5% CO2 humidified air. Then, medium is removed and cells are treated with scalar dilutions of the peptide […] (PEP-1, H-[SEQ ID. NO. 2]-NH2) at 1, 0.5 and 0.1 mg/ml in culture medium during 48 hours at 37° C. in 5% CO2 humidified air. Non-treated cells incubated in culture medium alone are used as basal conditions. […] After 48 hours of treatment, cells are detached using trypsin and resuspended in 60 ul of Phosphate buffer saline (Sigma). Total protein concentration is measured by a Pierce BCA Protein Assay Kit (BCA Assay, Thermo Scientific) following manufacturer's protocol to adjust the final protein concentration between 700-1000 ug/ml. Briefly, standards and samples are dispensed and Working Reagent is added to the samples. After 30 minutes of incubation at 37° C., absorbance is measured with a microplate reader (Clariostar®, BMG) at 562 nm. Mitochondrial complex I activity is measured with Complex I enzyme activity microplate assay Kit (Abcam) according to the manufacture's protocol. This assay follows the oxidation of NADH to NAD coupled to the reduction of a specific colorimetric dye, leading to an increase in absorbance at 450 nm. In brief, 200 ul of each sample (adjusted to 700-1000 ug/ml of total protein amount) is incubated for 3 hours. After that, wells are washed several times and incubated with Assay Solution provided with the kit (composed by NADH and the specific dye). For the determination of mitochondrial complex I activity, colorimetric increase of Optical Density (OD) at 450 nm in a kinetic reaction along 1 hour is measured with a microplate reader (Clariostar©, BMG). Results are calculated as the rate of increase in OD at 450 nm between two points in the linear zone over time. The percentage of mitochondrial complex I activity relative to basal conditions after the treatment with […] (PEP-1, H-[SEQ ID. NO. 2]-NH2) is represented in Table 9. These values represent the mean for at least three independent assays.

[2] = tested on: PER3 (period circadian clock 3); assay: PER genes expression in young and old HEKa, real time PCR: PER3; format: cell-based, Human; details: 0.5 mg/ml
Procedure: In Vitro Study of PER Genes Expression in Young and Old Human Epidermal Keratinocytes (HEKa) Using Real Time PCR Arrays. Human Epidermal Keratinocytes, (HEKa) cells (Life Technologies) from donor one and donor two are seeded at 3.0×10^5 cells/well in 12-well plates and incubated in culture medium, Keratinocyte growth medium supplemented with Mix C39016-CaCl2 solution (Promocell). For synchronization, cells were subjected to two alternative cycles of 12 hours each at 37° C. in 5% CO2 humidified air (day mode) and 33° C. in 5% CO2 humidified air (night mode). 12 hours after starting synchronization, cells are incubated with the synthetic peptide […] (PEP-1, H-[SEQ ID. NO. 2]-NH2) at 0.5 mg/ml in culture medium. Cells treated with medium alone are used as basal condition. At the end of synchronization, cell lysates are collected at 7:30 hour (early morning point). […] After RNA elution, quantification and analysis of purity of RNA samples are performed with a nanodrop (Thermo). […] SYBR Green binds to double-stranded DNA molecules and emits fluorescence which is quantified, and the fluorescence intensity is proportional to the amount of the product in the PCR reaction. […] Fold change relative to the expression of the sample genes and reference genes is calculated using normalized expression (ΔΔ(Ct)) method using CFX Manager SoftwareTM (BioRad).

## H-Phe-Trp-Met-Lys-Arg-Lys-Arg-Val-Pro-NH2 (H-FWMKRKRVP-NH2) [PEP-1]
[1]; 0.1 mg/mL
  Percentage of mitochondrial complex I activity relative to basal condition (%): 83.23%
[1]; 0.5 mg/mL
  Percentage of mitochondrial complex I activity relative to basal condition (%): 71.68%
[1]; 1 mg/mL
  Percentage of mitochondrial complex I activity relative to basal condition (%): 55.35%
[2]; PER3, HEKa from donor one
  Fold induction at 7:30 h respect to Basal condition (%): 182.5%
[2]; PER3, HEKa from donor two
  Fold induction at 7:30 h respect to Basal condition (%): 249.0%
